Measurements: patent US12037302B1, “Compound for treatment of bacterial infections of different etiology in humans” (priority 2021, dated 2024)

What was measured:
[1] = system: Escherichia coli O157:H7; assay: Comparative in vitro zone diameter test on Müler-Hinton-Agar; assay type: cell-based; conditions: amount used: novel compound 0.05 mL, Cephalosporin 0.1 mL, Ampicillin 0.2 mL
Source text: (§1) Here are the findings of the comparative examination of selected pathogens against the novel compound and the antibiotics Cephalosporin and Ampicillin:
(§2) Evaluation of the results by zone diameter: • 0 mm to 4 mm: resistant: R • 5 mm to 9 mm: moderately sensitive: MS • 10 mm to 15 mm: sensitive: S • 16 mm to 20 mm: very sensitive: VS • 21 mm and more: extremely sensitive: ES

[2] = system: Listeria monocytogenes; assay: as above; assay type: cell-based; conditions: amount used: novel compound 0.05 mL, Cephalosporin 0.1 mL, Ampicillin 0.2 mL
Source text: as §1, §2

[3] = system: Salmonella typhimurium DT104; assay: as above; assay type: cell-based; conditions: amount used: novel compound 0.05 mL, Cephalosporin 0.1 mL, Ampicillin 0.2 mL
Source text: as §1, §2

[4] = system: Staphylococcus aureus; assay: as above; assay type: cell-based; conditions: amount used: novel compound 0.05 mL, Cephalosporin 0.1 mL, Ampicillin 0.2 mL
Source text: as §1, §2

[5] = system: Streptococcus pneumoniae; assay: as above; assay type: cell-based; conditions: amount used: novel compound 0.05 mL, Cephalosporin 0.1 mL, Ampicillin 0.2 mL
Source text: as §1, §2

[6] = system: Streptococcus pyogenes; assay: as above; assay type: cell-based; conditions: amount used: novel compound 0.05 mL, Cephalosporin 0.1 mL, Ampicillin 0.2 mL
Source text: as §1, §2

[7] = system: Streptococcus uberis; assay: as above; assay type: cell-based; conditions: amount used: novel compound 0.05 mL, Cephalosporin 0.1 mL, Ampicillin 0.2 mL
Source text: as §1, §2

[8] = system: mice; assay: Acute toxicity LD50, peroral application (p.o.), mice; assay type: in vivo
Source text: (§3) Both mice and rats were specially selected for the testing of the toxicity of the compounds, medicine, and chemicals. […] Groups of one hundred (100) lab mice and rats of both genders were placed into glass compartments. They were regularly consuming food manufactured for these lab animals. Water consumption was always available.
(§4) The peroral application (p.o.) acute toxicity LD50 testing was done using the standard procedure: application p.o. with the special lab pipette easy to administer liquid product: orally to the lab animals.
Breathing and cardiac functions were regular, function of thorax was regular and without visual changes. Discomfort symptoms were noticed after the applications, disappeared after 1-3 min, diverse from mouse to mouse.

[9] = system: rats; assay: Acute toxicity LD50, peroral application (p.o.), rats; assay type: in vivo
Source text: as §3, §4
Breathing and cardiac functions were regular, function of thorax was regular and without visual changes. Discomfort symptoms noticed after the applications, disappeared after 1-3 min, diverse from rat to rat.

[10] = system: mice; assay: Acute toxicity LD50, intraperitoneal (i.p.) injection, mice; assay type: in vivo
Source text: as §3
(§5) Intraperitoneal testing of the compound LD50 i.e. by pharmaceutical lab needle and syringe, designed for the easy application to the lab animals intraperitoneally.
Breathing and cardiac functions were regular, function of thorax was regular and without visual changes. Discomfort symptoms noticed after the applications, disappeared after 3-5 min, diverse from mouse to mouse.

[11] = system: rats; assay: Acute toxicity LD50, intraperitoneal (i.p.) injection, rats; assay type: in vivo
Source text: as §3, §5
Breathing and cardiac functions were regular, function of thorax was regular and without visual changes. Discomfort symptoms noticed after the applications, disappeared after 5-6 min, diverse from rat to rat.

## CCN(CC)CC(=O)Nc1c(C)cccc1C.Cc1cc([N+](=O)[O-])c(C(C)C)c([N+](=O)[O-])c1O [Novel Compound, 2,4-dinitro-5-isopropyl-2-methylphenoxy-N-(2,6-dimethylphenylium)-N2,N2-diethylglycinamide]
[1]
  R (evaluation by zone diameter): ES (21 mm and more: extremely sensitive: ES)
  zone diameter: 24 mm
[2]
  R (evaluation by zone diameter): ES (21 mm and more: extremely sensitive: ES)
  zone diameter: 33 mm
[3]
  R (evaluation by zone diameter): ES (21 mm and more: extremely sensitive: ES)
  zone diameter: 25 mm
[4]
  R (evaluation by zone diameter): ES (21 mm and more: extremely sensitive: ES)
  zone diameter: 27 mm
[5]
  R (evaluation by zone diameter): ES (21 mm and more: extremely sensitive: ES)
  zone diameter: 31 mm
[6]
  R (evaluation by zone diameter): ES (21 mm and more: extremely sensitive: ES)
  zone diameter: 29 mm
[7]
  R (evaluation by zone diameter): ES (21 mm and more: extremely sensitive: ES)
  zone diameter: 32 mm
[8]; orally (p.o.), applied doses
  toxicity conclusion: low toxic
[8]; p.o.
  oral LD50: over 2,000 μL/kg
[8]; p.o., 2,000 μL/kg
  animals that changed their behavior and demonstrated light discomfort, running, anxiety: 23 mice out of one hundred (100)
  time after which discomfort symptoms disappeared: 1 to 3 min
[8]; p.o., doses up to 2,000 μL/kg
  lethality during the test: No mouse has ended lethally
[9]; orally (p.o.), applied doses
  toxicity conclusion: low toxic
[9]; p.o.
  oral LD50: over 2,250 μL/kg
[9]; p.o., 2,250 μL/kg
  animals that changed their behavior and demonstrated light discomfort, running, anxiety: 37 rats out of one hundred (100)
  time after which discomfort symptoms disappeared: 1 to 3 min
[9]; p.o., doses up to 2,250 μL/kg
  lethality during the test: No rat has ended lethally
[10]; i.p.
  Intraperitoneal LD50: over 1,550 μL/kg
[10]; i.p., 1,550 μL/kg
  animals that changed their behavior and demonstrated discomfort, running, anxiety: 21 mice out of one hundred (100)
  time after which discomfort symptoms disappeared: 3 to 5 min
[10]; i.p., applied doses
  toxicity conclusion: low toxic
[10]; i.p., doses up to 1,550 μL/kg
  lethality during the test: No mouse has ended lethally
[11]; i.p.
  Intraperitoneal LD50: over 1,750 ML/kg
[11]; i.p., 1,750 μL/kg
  animals that changed their behavior and demonstrated discomfort, running, anxiety: 29 rats out of one hundred (100)
  time after which discomfort symptoms disappeared: 5 to 6 min
[11]; i.p., applied doses
  toxicity conclusion: low toxic
[11]; i.p., doses up to 1,750 μL/kg
  lethality during the test: No rat has passed lethally

## CC1(C)S[C@@H]2[C@H](NC(=O)[C@H](N)c3ccccc3)C(=O)N2[C@H]1C(=O)O [Ampicilin, Ampicillin]
[1]
  R (evaluation by zone diameter): MS (5 mm to 9 mm: moderately sensitive: MS)
  zone diameter: 7 mm
[2]
  R (evaluation by zone diameter): MS (5 mm to 9 mm: moderately sensitive: MS)
  zone diameter: 7 mm
[3]
  R (evaluation by zone diameter): MS (5 mm to 9 mm: moderately sensitive: MS)
  zone diameter: 6 mm
[4]
  R (evaluation by zone diameter): R (0 mm to 4 mm: resistant: R)
  zone diameter: 0 mm
[5]
  R (evaluation by zone diameter): R (0 mm to 4 mm: resistant: R)
  zone diameter: 0 mm
[6]
  R (evaluation by zone diameter): R (0 mm to 4 mm: resistant: R)
  zone diameter: 3 mm
[7]
  R (evaluation by zone diameter): R (0 mm to 4 mm: resistant: R)
  zone diameter: 0 mm
